# Experimental data from patent US20130052281A1, “NOVEL COMPOUNDS” (Takeda Pharmaceutical Company Limited, priority 2011, published 2013).
# pIC50: −log10 of the molar value.
# Target: Human DAAO enzyme (Homo sapiens, UniProt P14920)
# Assay: In Vitro DAAO Enzyme Assay (Amplex Red detection of H2O2 from D-Serine)
# Type: biochemical
# Settings: inhibition of DAAO activity in the presence of 10 mM D-Serine; 60 minutes at 25° C.; ten point dose-response
# Procedure: The Km of D-Serine was measured for each enzyme batch to maintain consistency; this Km was used in subsequent assays.
# On the day of the assay compounds were serially diluted in DMSO before being diluted 1:20 with assay buffer (20 mM Tris ph 7.4). […] Finally 5 μl ‘Amplex’ red reagent (Invitrogen) was added to all wells as per manufacturer's protocol. The plate was incubated for 60 minutes in the dark at 25° C. and the fluorescence in each well was measured in the Envision plate reader.
# Concentration response curves were generated using the average of duplicate wells for each data point and analyzed using non-linear regression and four parameter curve fit.
# Sequence of Human DAAO enzyme (P14920 whole entry): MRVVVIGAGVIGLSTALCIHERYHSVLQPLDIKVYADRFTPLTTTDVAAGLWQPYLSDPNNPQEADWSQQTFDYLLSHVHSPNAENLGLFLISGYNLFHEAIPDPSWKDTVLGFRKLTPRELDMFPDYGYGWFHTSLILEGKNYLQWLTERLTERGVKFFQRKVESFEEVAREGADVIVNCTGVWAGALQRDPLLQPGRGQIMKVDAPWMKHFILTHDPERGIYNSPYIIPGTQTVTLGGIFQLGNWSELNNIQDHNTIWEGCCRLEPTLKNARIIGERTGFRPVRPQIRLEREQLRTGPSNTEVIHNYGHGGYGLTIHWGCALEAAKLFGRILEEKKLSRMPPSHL
row,pIC50,Compound
1,7.66,"O=c1[nH]nc(CCc2cccc(OC(F)(F)F)c2)cc1O [Example 10, 4-Hydroxy-6-{2-[3-(trifluoromethoxy)phenyl]ethyl}pyridazin-3(2H)-one]"
2,7.64,"O=c1[nH]nc(CCc2cncc(C(F)(F)F)c2)cc1O [Example 12, 4-Hydroxy-6-{2-[5-(trifluoromethyl)pyridin-3-yl]ethyl}pyridazin-3(2H)-one]"
